Data taken from paper PMC10135033, “Sulfonamidoboronic Acids as “Cross-Class” Inhibitors of an Expanded-Spectrum Class C Cephalosporinase, ADC-33, and a Class D Carbapenemase, OXA-24/40: Strategic Compound Design to Combat Resistance in Acinetobacter baumannii” (Antibiotics, 2023).

Columns and labels:
[1] = molecular target: ADC-33 (Acinetobacter baumannii, UniProt A7Y407); test: Ki determination, competition assay with nitrocefin (NCF) as substrate; format: biochemical; conditions: for Ki: corrected for NCF affinity, 5 min pre-incubation, pH 7.4
Protocol: (§1) The affinity of CR167 for the two different β-lactamases was measured in competition assays using nitrocefin (NCF) as the indicator substrate (Table 1).
(§2) The binding affinity of each of the compounds 6a–e with ADC-33 and with OXA-24/40 was determined after 5 min pre-incubation of boronic acid and the enzyme, using competition assays with nitrocefin (NCF) as the substrate. […] These compounds differ in three structural characteristics: stereochemistry, the presence of the m-carboxylate on the aromatic ring, and the small chain linked to the chiral center. […] Finally, the smaller the steric hindrance is at the R1 position, the higher the affinity is.
(§3) Ki values were determined by using nitrocefin as a reporter substrate and treating the compounds as competitive inhibitors. Steady-state kinetic parameters were determined by combining pure enzyme with nitrocefin in 50 mM NaH2PO4; 25 mM NaHCO3, pH 7.4 (for OXA-24/40); or 50 mM NaH2PO4, pH 7.4 (for ADC-33), at room temperature. Changes in absorbance were measured on a Cary 60 UV−Vis spectrophotometer (Agilent Technologies) and converted to velocity using the change-in-extinction coefficient specific to nitrocefin (ε = 17,400 M^−1·cm^−1 at 482 nm). Initial velocities were fit to the Michaelis–Menten equation, yielding kcat and Km values. Next, the enzyme was challenged with a constant concentration of nitrocefin and increasing amounts of inhibitor. IC50 values were used to calculate Ki values using the Cheng–Prusoff equation as previously described. Specifically, the measurements of the initial velocities were performed with the addition of 100 µM NCF after a 5 min pre-incubation of the enzyme (2 nM) with increasing concentration of the inhibitor [37]. To determine the average velocities (v0), data from three experiments were fit to Equation (1): (1) v0=vu −{vu[I]/IC 50+[I]} where vu represents the NCF uninhibited velocity and IC50 represents the inhibitor concentration that results in a 50% reduction in vu. The Ki value was corrected for the NCF affinity (Km values for both OXA-24/40 and ADC-33) with the Cheng–Prusoff equation (Equation (2)): (2) Ki=IC50/(1+[NCF]/KmNCF)

[2] = molecular target: T1, OXA-24/40 (Acinetobacter baumannii, UniProt Q8RLA6); test: as above; format: biochemical; conditions: corrected for NCF affinity; 5 min pre-incubation; pH 7.4, 25 mM NaHCO3; read-out: Ki OXA-24/40
T1 construct: made in house
Protocol: as §1, §2, §3

[3] = test system: E. coli DH10B pBCSK, blaADC-7; set-up: method as in PMID 29144724; conditions: without inhibitor; cited from earlier work
[4] = test system: clinical A. baumannii isolate PR396 (OXA-82, ADC-33); test: Antimicrobial susceptibility testing, clinical isolate, broth microdilution; format: cell-based; conditions: BLI none
Protocol: (§4) Clinical A. baumannii isolates containing ADC-33 or OXA-24/-40 in combination with various other well-defined β-lactamases were also tested against CR167 and 6b (Table 5).
(§5) The clinical A. baumannii isolates used to test the β-lactamase inhibitors were selected from a previously well-characterized collection in our lab. They were chosen as they had either ADC-33 and/or OXA-24 in combination with other known β-lactamases (for specific combinations, see Table 5).
(§6) Testing of susceptibility to standard antibiotics was performed with broth microdilution according to CLSI guidelines. MICs for CAZ, CTX, FEP, and IMI were determined using cation-adjusted Mueller–Hinton broth according to CLSI methods, and CR167 or 6b was used at a fixed concentration of 10 mg/L. All MICs were interpreted according to the 2022 Clinical and Laboratory Standards Institute (CLSI) guidelines.

[5] = test system: clinical A. baumannii isolate PR474 (OXA-23, OXA-24, OXA-65, ADC-218); test: as above; format: cell-based; conditions: BLI none; PR474
Protocol: as §4, §5, §6

[6] = test system: clinical A. baumannii isolate PR328 (OXA-23, OXA-82, ADC-33); test: as above; format: cell-based; conditions: BLI none; PR328
Protocol: as §4, §5, §6

[7] = test system: clinical A. baumannii isolate PR378 (OXA-24, OXA-65, TEM-1); test: as above; format: cell-based; conditions: BLI none; PR378
Protocol: as §4, §5, §6

[8] = test system: clinical A. baumannii isolate PR462 (OXA-24, OXA-65, ADC-214); test: as above; format: cell-based; conditions: BLI none
Protocol: as §4, §5, §6

[9] = test system: clinical A. baumannii isolate PR323 (OXA-24, OXA-65, ADC-218); test: as above; format: cell-based; conditions: BLI none; PR323
Protocol: as §4, §5, §6

[10] = test system: clinical A. baumannii isolate PR408 (OXA-24, OXA-71, ADC-212); test: as above; format: cell-based; conditions: BLI none; PR408
Protocol: as §4, §5, §6

[11] = test system: A. baumannii ATCC 17978 native ADC KO, OXA-24 pWH1266; test: Antimicrobial susceptibility testing, broth microdilution; format: cell-based; conditions: BLI none; ATCC 17978 ADC KO, OXA-24 pWH1266
Protocol: (§7) The inhibitory effects of both compounds were tested against ADC-33 and OXA-24/-40 in A. baumannii, their native host. ATCC 17978, with its intrinsic chromosomal ADC knocked out (intrinsic OXA still present), was used in these experiments. In this isolate, the ADC MICs were not lowered by the inhibitors as much as they were against the E. coli background (Table 4).
(§8) pWH1266 is a vector that replicates in A. baumannii, and the […] pWH1266 construct was generated as follows. The TEM gene was removed using inverse PCR, and an Xba1 site was engineered into the vector. blaOXA-24/40 and its upstream XerC/XerD were amplified from strain NM55. The amplified gene was cloned into the Xba1 site of the altered pWH1266 vector. The construct was confirmed using PCR and sequencing. Both blaADC-33 pQF1266 and […] pWH1266 were then expressed in A. baumannii ATCC 17978 that had the intrinsic chromosomal ADC gene knocked out.
(§9) The chromosomal blaADC-51 gene in ATCC 17978 was deleted and replaced with an apramycin resistance cassette using the recombineering method described by Tucker et al.. Primers used for this deletion were: Del AmpC-apra.For: […]; and Del AmpC-apra.Rev: […]. The correct deletion mutant was confirmed using PCR and sequencing.
as §6

[12] = test system: A. baumannii ATCC 17978 native ADC KO, ADC-33 pQF1266; test: as above; format: cell-based; conditions: BLI none; ATCC 17978 ADC KO, ADC-33 pQF1266
Protocol: as §7
Plasmid pBCSK- containing the blaADC-33 gene was digested with PvuII, which released the blaADC-33 gene, along with the lac promoter, which drives expression. This PvuII fragment was cloned into the SmaI site of the pQF1266 plasmid.
as §8, §9, §6

[13] = test system: E. coli DH10B, ADC-33 in pBCSK-; test: as above; format: cell-based; conditions: BLI none; E. coli DH10B ADC-33 pBCSK-
Protocol: (§10) Based upon the inhibitor kinetics (Ki determinations), CR167 and the sulfonamidoboronic acid 6b were tested against E. coli strains expressing ADC-7 and ADC-33 cloned into pBCSK- (DH10B) (Table 3).
(§11) blaADC-7 pBCSK- and blaADC-33 pBCSK- were cloned and expressed in E. coli DH10B cells as previously described.
as §6

[14] = test system: E. coli DH10B, ADC-7 in pBCSK-; test: as above; format: cell-based; conditions: BLI none; E. coli DH10B ADC-7 pBCSK-
Protocol: as §10, §11, §6

[15] = test system: OXA-24/40; set-up: method as in PMID 20299220; conditions: cited from earlier work

T1 sequence (Q8RLA6 22-275): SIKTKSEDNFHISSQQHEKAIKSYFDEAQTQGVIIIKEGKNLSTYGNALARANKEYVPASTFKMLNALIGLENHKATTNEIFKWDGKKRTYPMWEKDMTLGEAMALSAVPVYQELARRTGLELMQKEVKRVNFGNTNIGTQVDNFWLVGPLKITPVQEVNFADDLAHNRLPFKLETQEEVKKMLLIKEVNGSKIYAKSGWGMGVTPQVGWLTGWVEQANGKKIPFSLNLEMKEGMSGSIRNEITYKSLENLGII

| Ki [1] [µM] | Ki [2] [µM] | Structure (SMILES) | MIC, antibiotic alone [4] [µg/mL] | MIC, antibiotic alone [5] [µg/mL] | MIC, antibiotic alone [6] [µg/mL] | MIC, antibiotic alone [7] [µg/mL] | MIC, antibiotic alone [8] [µg/mL] | MIC, antibiotic alone [9] [µg/mL] | MIC, antibiotic alone [10] [µg/mL] | MIC, antibiotic alone [11] [µg/mL] | MIC, antibiotic alone [12] [µg/mL] | MIC, antibiotic alone [13] [µg/mL] | MIC, antibiotic alone [14] [µg/mL] | further results |
| --- | --- | --- | --- | --- | --- | --- | --- | --- | --- | --- | --- | --- | --- | --- |
| 193 ± 23 | > 1000 | CC[C@@H](NS(=O)(=O)Cc1ccccc1)B(O)O [6c] |  |  |  |  |  |  |  |  |  |  |  |  |
| 22 ± 3 | 320 ± 30 | CC[C@@H](NS(=O)(=O)Cc1cccc(C(=O)O)c1)B(O)O [6d] |  |  |  |  |  |  |  |  |  |  |  |  |
| 3.7 ± 0.6 | > 1000 | CC[C@H](NS(=O)(=O)Cc1cccc(C(=O)O)c1)B(O)O [6e] |  |  |  |  |  |  |  |  |  |  |  |  |
|  |  | CC(C)(O/N=C(\C(=O)N[C@@H]1C(=O)N2C(C(=O)[O-])=C(C[n+]3ccccc3)CS[C@H]12)c1csc(N)n1)C(=O)O [CAZ, ceftazidime, reference compound] | 2048 | 4096 | 2048 | 64 | 256 | 4096 | 1024 | 8 | 128 | 2048 | 64 | MIC for CAZ alone [3]: 64 µg/mL |
|  |  | CO/N=C(\C(=O)N[C@@H]1C(=O)N2C(C(=O)O)=C(COC(C)=O)CS[C@H]12)c1csc(N)n1 [CTX, Cefotaxime, reference compound] | 512 | 1024 | 256 | 64 | 1024 | 2048 | 1024 | 16 | 32 | 128 | 64 |  |
|  |  | O=S(=O)(NCB(O)O)c1cc2c(Cl)ccc(Cl)c2s1 [DSABA, 4,7-dichloro-1-benzothien-2-yl-sulfonylaminomethyl boronic acid] |  |  |  |  |  |  |  |  |  |  |  | IC50 [15]: 5.6 µM |
|  |  | CO/N=C(\C(=O)N[C@@H]1C(=O)N2C(C(=O)[O-])=C(C[N+]3(C)CCCC3)CS[C@H]12)c1csc(N)n1 [FEP, cefepime, reference compound] |  |  |  |  |  |  |  | 32 | 4 | 0.5 | 0.5 |  |
|  |  | C[C@@H](O)[C@H]1C(=O)N2C(C(=O)O)=C(SCCN=CN)C[C@H]12 [IMI, reference compound] | 64 | 128 | 128 | 256 | 64 | 128 | 128 |  |  |  |  |  |

| Structure (SMILES) | Ki [1] [µM] | Ki [2] [µM] | MIC, antibiotic alone [4] [µg/mL] | MIC, antibiotic alone [5] [µg/mL] | MIC, antibiotic alone [6] [µg/mL] | MIC, antibiotic alone [7] [µg/mL] | MIC, antibiotic alone [8] [µg/mL] | MIC, antibiotic alone [9] [µg/mL] | MIC, antibiotic alone [10] [µg/mL] | MIC, antibiotic alone [11] [µg/mL] | MIC, antibiotic alone [12] [µg/mL] | MIC, antibiotic alone [13] [µg/mL] | MIC, antibiotic alone [14] [µg/mL] | further results |
| --- | --- | --- | --- | --- | --- | --- | --- | --- | --- | --- | --- | --- | --- | --- |
| C[C@@H](NS(=O)(=O)Cc1ccccc1)B(O)O [6a] | 3.1 ± 0.5 | 630 ± 70 |  |  |  |  |  |  |  |  |  |  |  | fold less potent than 6b, ADC-33 ([1]; ratio of Ki, 6a vs 6b): 4 fold |
